Measured values reported in the NIST ThermoML archive (doi:10.1016/j.jct.2011.01.014).

Assay: xn = mol fraction of the nth substance listed
Settings: 101 kPa, Liquid; for speed of sound: sound velocity cell; for mass density: Vibrating tube method

CC(=O)[O-].[NH3+]CCO [2-hydroxyethylammonium acetate] + O
Settings	mass density [kg/m3]	speed of sound [m/s]
305.65 K, x1 = 0.051	–	1689.8
305.65 K, x1 = 0.1019	–	1763.6
305.65 K, x1 = 0.1963	–	1817.3
305.65 K, x1 = 0.2894	–	1823.5
305.65 K, x1 = 0.3959	–	1811.5
305.65 K, x1 = 0.5016	–	1799.8
305.65 K, x1 = 0.5821	–	1797
305.65 K, x1 = 0.6837	–	1788.2
305.65 K, x1 = 0.7763	–	1786.6
305.65 K, x1 = 0.8761	–	1776.6
305.65 K, x1 = 0.9137	–	1778.1
305.65 K, x1 = 1	–	1773.4
308.15 K, x1 = 0.051	1047.04	1690.8
308.15 K, x1 = 0.1019	1076	1762.3
308.15 K, x1 = 0.1963	1106.1	1814
308.15 K, x1 = 0.2894	1120.43	1819.3
308.15 K, x1 = 0.3959	1129.69	1806.9
308.15 K, x1 = 0.5016	1134.77	1795
308.15 K, x1 = 0.5821	1137.3	1792.1
308.15 K, x1 = 0.6837	1139.14	1783.2
308.15 K, x1 = 0.7763	1140.95	1781.4
308.15 K, x1 = 0.8761	1142.23	1771.3
308.15 K, x1 = 0.9137	1142.59	1772.8
308.15 K, x1 = 1	1143.39	1767.9
310.65 K, x1 = 0.051	1045.86	1691.5
310.65 K, x1 = 0.1019	1074.78	1760.8
310.65 K, x1 = 0.1963	1104.76	1810.6
310.65 K, x1 = 0.2894	1119.06	1815.2
310.65 K, x1 = 0.3959	1128.3	1802.4
310.65 K, x1 = 0.5016	1133.38	1790.2
310.65 K, x1 = 0.5821	1135.91	1787.2
310.65 K, x1 = 0.6837	1137.76	1778.2
310.65 K, x1 = 0.7763	1139.58	1776.3
310.65 K, x1 = 0.8761	1140.87	1766
310.65 K, x1 = 0.9137	1141.2	1767.5
310.65 K, x1 = 1	1141.96	1762.5
313.15 K, x1 = 0.051	1044.65	1692
313.15 K, x1 = 0.1019	1073.54	1759.2
313.15 K, x1 = 0.1963	1103.42	1807.1
313.15 K, x1 = 0.2894	1117.69	1811.1
313.15 K, x1 = 0.3959	1126.9	1797.7
313.15 K, x1 = 0.5016	1131.98	1785.3
313.15 K, x1 = 0.5821	1134.53	1782.3
313.15 K, x1 = 0.6837	1136.37	1773.2
313.15 K, x1 = 0.7763	1138.21	1771.3
313.15 K, x1 = 0.8761	1139.5	1760.8
313.15 K, x1 = 0.9137	1139.84	1762.3
313.15 K, x1 = 1	1140.55	1757.2
315.15 K, x1 = 0.051	1043.45	–
315.15 K, x1 = 0.1019	1072.29	–
315.15 K, x1 = 0.1963	1102.07	–
315.15 K, x1 = 0.2894	1116.31	–
315.15 K, x1 = 0.3959	1125.5	–
315.15 K, x1 = 0.5016	1130.58	–
315.15 K, x1 = 0.5821	1133.13	–
315.15 K, x1 = 0.6837	1134.98	–
315.15 K, x1 = 0.7763	1136.83	–
315.15 K, x1 = 0.8761	1138.14	–
315.15 K, x1 = 0.9137	1138.48	–
315.15 K, x1 = 1	1139.18	–
315.65 K, x1 = 0.051	–	1692.3
315.65 K, x1 = 0.1019	–	1757.5
315.65 K, x1 = 0.1963	–	1803.5
315.65 K, x1 = 0.2894	–	1806.9
315.65 K, x1 = 0.3959	–	1793.1
315.65 K, x1 = 0.5016	–	1780.5
315.65 K, x1 = 0.5821	–	1777.4
315.65 K, x1 = 0.6837	–	1768.2
315.65 K, x1 = 0.7763	–	1766.2
315.65 K, x1 = 0.8761	–	1755.7
315.65 K, x1 = 0.9137	–	1757.1
315.65 K, x1 = 1	–	1751.9
318.15 K, x1 = 0.051	1042.25	1692.3
318.15 K, x1 = 0.1019	1071.02	1755.5
318.15 K, x1 = 0.1963	1100.71	1799.9
318.15 K, x1 = 0.2894	1114.92	1802.6
318.15 K, x1 = 0.3959	1124.1	1788.4
318.15 K, x1 = 0.5016	1129.18	1775.6
318.15 K, x1 = 0.5821	1131.74	1772.5
318.15 K, x1 = 0.6837	1133.59	1763.2
318.15 K, x1 = 0.7763	1135.45	1761.2
318.15 K, x1 = 0.8761	1136.76	1750.5
318.15 K, x1 = 0.9137	1137.11	1751.9
318.15 K, x1 = 1	1137.82	1746.5
320.65 K, x1 = 0.051	1041.08	1692.2
320.65 K, x1 = 0.1019	1069.74	1753.5
320.65 K, x1 = 0.1963	1099.34	1796.1
320.65 K, x1 = 0.2894	1113.53	1798.2
320.65 K, x1 = 0.3959	1122.69	1783.6
320.65 K, x1 = 0.5016	1127.77	1770.7
320.65 K, x1 = 0.5821	1130.35	1767.6
320.65 K, x1 = 0.6837	1132.19	1758.2
320.65 K, x1 = 0.7763	1134.06	1756.1
320.65 K, x1 = 0.8761	1135.38	1745.3
320.65 K, x1 = 0.9137	1135.73	1746.7
320.65 K, x1 = 1	1136.45	1741.3
323.15 K, x1 = 0.051	1040.15	1691.8
323.15 K, x1 = 0.1019	1068.47	1751.2
323.15 K, x1 = 0.1963	1097.97	1792.3
323.15 K, x1 = 0.2894	1112.14	1793.9
323.15 K, x1 = 0.3959	1121.29	1778.9
323.15 K, x1 = 0.5016	1126.36	1765.9
323.15 K, x1 = 0.5821	1128.95	1762.8
323.15 K, x1 = 0.6837	1130.79	1753.3
323.15 K, x1 = 0.7763	1132.67	1751
323.15 K, x1 = 0.8761	1134	1740.2
323.15 K, x1 = 0.9137	1134.36	1741.5
323.15 K, x1 = 1	1135.08	1736
